pIC50, pKi: −log10 of the molar value. Values after ≈ are worked out from the molar mass of the structure shown.
Experiments:
[1] = Tmax in rat at 10 mg/kg, ip; assay type: ADME, organism-based; conditions: in vivo
[2] = Plasma concentration in NIH Swiss Webster mouse at 1 mg/kg, ip at 30 mins; assay type: ADME, organism-based
[3] = Drug uptake in NIH Swiss Webster mouse brain at 1 mg/kg, ip at 30 mins; assay type: ADME, organism-based; conditions: read-out: Drug uptake
[4] = target: T1, Metabotropic glutamate receptor 2 (Homo sapiens, UniProt Q14416); assay: Displacement of [3H]-LY459477 from human mGlu2 receptor expressed in hamster AV12 cell membranes co-expressing human EAAT1 after 90 mins by liquid scintillation counting method
Target sequence in this assay (Q14416 whole entry): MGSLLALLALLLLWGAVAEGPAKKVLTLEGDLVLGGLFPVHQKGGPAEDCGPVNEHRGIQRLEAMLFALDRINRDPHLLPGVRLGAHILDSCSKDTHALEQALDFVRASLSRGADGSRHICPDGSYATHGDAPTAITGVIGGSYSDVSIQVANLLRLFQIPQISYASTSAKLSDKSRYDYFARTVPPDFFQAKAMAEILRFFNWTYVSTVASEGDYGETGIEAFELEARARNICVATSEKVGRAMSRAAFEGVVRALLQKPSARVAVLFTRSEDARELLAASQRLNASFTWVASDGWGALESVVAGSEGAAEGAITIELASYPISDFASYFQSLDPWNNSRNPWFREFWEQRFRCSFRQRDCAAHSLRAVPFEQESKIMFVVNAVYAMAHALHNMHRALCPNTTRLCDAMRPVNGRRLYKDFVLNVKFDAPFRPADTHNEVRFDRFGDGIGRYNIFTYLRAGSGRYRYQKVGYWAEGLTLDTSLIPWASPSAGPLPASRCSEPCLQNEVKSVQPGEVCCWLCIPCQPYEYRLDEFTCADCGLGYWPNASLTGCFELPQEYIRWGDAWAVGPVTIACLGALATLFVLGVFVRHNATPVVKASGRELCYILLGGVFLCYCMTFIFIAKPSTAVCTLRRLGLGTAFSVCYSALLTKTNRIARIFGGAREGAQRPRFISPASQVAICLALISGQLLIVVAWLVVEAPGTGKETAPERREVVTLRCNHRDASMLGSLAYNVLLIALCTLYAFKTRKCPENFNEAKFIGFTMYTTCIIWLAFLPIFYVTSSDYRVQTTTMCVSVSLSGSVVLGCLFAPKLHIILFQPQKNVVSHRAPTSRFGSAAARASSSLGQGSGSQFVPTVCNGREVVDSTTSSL

[5] = Drug metabolism in human microsomes at 4 uM after 30 mins; assay type: ADME, Microsome; conditions: read-out: Drug metabolism
[6] = Volume of distribution at steady state in rat at 1 mg/kg, iv; assay type: ADME, organism-based; conditions: in vivo, read-out: Vdss
[7] = Antidepressant activity in NIH Swiss Webster mouse assessed as immobility time at 3 mg/kg, ip administered 30 mins prior to test measured during last 4 mins of the 6 mins observation time by forced swim test (reference value: 142 sec); assay type: functional, organism-based
[8] = Unbound fraction in monkey plasma at 1 uM; assay type: ADME, cell-free, Macaca mulatta; conditions: rhesus monkey
[9] = Cmax in rat at 1 mg/kg, iv; assay type: ADME, organism-based; parameters: dose 1 mg/kg, route intravenous; conditions: in vivo
[10] = Half life in rat at 5 mg/kg, po; assay type: ADME, organism-based; conditions: in vivo
[11] = Cmax in rat at 10 mg/kg, ip; assay type: ADME, organism-based; parameters: dose 10 mg/kg, route intraperitoneal; conditions: in vivo
CYP2C9 = CYP2C9 (Homo sapiens, UniProt P11712); assay: Inhibition of human CYP2C9 at 10 uM; assay type: ADME
[12] = Oral bioavailability in rat at 5 mg/kg; assay type: ADME, organism-based; conditions: in vivo
[13] = Unbound fraction in mouse; assay type: ADME, organism-based; conditions: in vivo
[14] = Antidepressant activity in ip dosed rat EEG model assessed as accumulated wake time measured over 7 hrs relative to control; assay type: functional, organism-based
[15] = target: Metabotropic glutamate receptor 3 (Homo sapiens, UniProt Q14832); assay: Antagonist activity at recombinant human mGlu3 receptor expressed in hamster AV12 cells co-expressing human EAAT1 assessed as reduction of DCG-4-inhibited forskolin-stimulated cAMP formation after 20 mins by HTRF assay; assay type: functional, cell-based
[16] = target: T1, Metabotropic glutamate receptor 2; assay: Antagonist activity at recombinant human mGlu2 receptor expressed in hamster AV12 cells co-expressing human EAAT1 assessed as reduction of DCG-4-inhibited forskolin-stimulated cAMP formation after 20 mins by HTRF assay; assay type: functional, cell-based
ABCB1 (P-gp) = ABCB1 (P-gp) (Homo sapiens, UniProt P08183); assay: Inhibition of human ABCB1 expressed in MDCK cells at 5 to 25 uM relative to control; assay type: ADME, cell-based; conditions: MDCK-MDR1
[17] = Ratio of drug level in brain to plasma in mouse at 10 mg/kg, ip after 30 mins; assay type: ADME, organism-based; conditions: read-out: BPR
Rattus norvegicus = assay: Toxicity in rat assessed as NREM sleep at 3 to 10 mg/kg, ip; assay type: organism-based; conditions: in vivo
[18] = Antidepressant activity in rat EEG model assessed as accumulated wake time at 10 mg/kg, ip measured over 7 hrs relative to control; assay type: functional, organism-based
[19] = Aqueous solubility of compound at pH 7.4; assay type: physicochemical; conditions: aqueous medium
[20] = Unbound fraction in rat plasma at 1 uM; assay type: ADME, cell-free
[21] = Half life in rat at 10 mg/kg, ip; assay type: ADME, organism-based; conditions: in vivo

Sequence of ABCB1 (P-gp) (P08183 whole entry): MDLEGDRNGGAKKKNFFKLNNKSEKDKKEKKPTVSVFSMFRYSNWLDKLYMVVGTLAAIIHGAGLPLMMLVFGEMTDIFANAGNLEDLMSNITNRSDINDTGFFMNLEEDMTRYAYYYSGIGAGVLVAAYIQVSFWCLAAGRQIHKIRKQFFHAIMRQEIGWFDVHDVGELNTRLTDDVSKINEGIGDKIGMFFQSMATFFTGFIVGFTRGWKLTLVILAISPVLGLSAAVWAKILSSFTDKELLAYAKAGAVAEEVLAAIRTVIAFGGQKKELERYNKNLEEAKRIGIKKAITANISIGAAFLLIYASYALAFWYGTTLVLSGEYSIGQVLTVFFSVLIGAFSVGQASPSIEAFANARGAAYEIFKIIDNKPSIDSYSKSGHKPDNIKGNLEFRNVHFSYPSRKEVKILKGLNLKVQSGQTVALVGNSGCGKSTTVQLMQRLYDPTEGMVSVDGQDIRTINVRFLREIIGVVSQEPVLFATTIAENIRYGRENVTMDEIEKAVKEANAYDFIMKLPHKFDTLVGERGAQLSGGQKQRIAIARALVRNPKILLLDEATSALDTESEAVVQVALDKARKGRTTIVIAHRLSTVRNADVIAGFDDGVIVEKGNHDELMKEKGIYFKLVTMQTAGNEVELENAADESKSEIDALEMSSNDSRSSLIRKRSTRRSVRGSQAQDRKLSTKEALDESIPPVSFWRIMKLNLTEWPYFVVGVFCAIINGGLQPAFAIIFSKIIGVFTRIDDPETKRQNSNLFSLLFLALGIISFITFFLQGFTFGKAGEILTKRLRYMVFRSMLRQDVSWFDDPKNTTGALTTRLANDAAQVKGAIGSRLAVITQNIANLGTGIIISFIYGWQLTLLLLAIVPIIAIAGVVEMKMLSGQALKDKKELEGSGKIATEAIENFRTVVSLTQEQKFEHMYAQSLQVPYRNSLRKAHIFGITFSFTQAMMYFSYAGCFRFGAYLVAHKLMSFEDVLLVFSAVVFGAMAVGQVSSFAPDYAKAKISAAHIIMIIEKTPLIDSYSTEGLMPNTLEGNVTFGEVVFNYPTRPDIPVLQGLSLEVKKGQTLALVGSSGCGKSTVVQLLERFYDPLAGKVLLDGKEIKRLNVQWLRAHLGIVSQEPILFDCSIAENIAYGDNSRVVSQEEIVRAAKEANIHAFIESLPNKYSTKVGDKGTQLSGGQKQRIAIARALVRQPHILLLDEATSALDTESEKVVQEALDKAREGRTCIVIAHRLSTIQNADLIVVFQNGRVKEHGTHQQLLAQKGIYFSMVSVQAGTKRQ
Sequence of CYP2C9 (P11712 whole entry): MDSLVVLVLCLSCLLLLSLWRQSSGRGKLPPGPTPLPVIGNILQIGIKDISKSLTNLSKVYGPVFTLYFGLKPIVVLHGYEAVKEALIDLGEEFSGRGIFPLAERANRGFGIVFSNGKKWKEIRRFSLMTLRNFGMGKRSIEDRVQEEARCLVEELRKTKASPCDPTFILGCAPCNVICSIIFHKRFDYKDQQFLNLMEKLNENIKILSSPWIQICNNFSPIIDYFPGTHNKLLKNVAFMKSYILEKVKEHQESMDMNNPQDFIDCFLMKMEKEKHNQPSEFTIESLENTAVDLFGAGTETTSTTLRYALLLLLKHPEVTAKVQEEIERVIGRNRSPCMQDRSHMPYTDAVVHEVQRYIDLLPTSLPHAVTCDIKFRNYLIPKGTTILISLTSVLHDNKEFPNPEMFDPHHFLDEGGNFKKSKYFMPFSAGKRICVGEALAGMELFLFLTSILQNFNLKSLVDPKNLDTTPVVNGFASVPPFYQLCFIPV

In the case of `N[C@]1(C(=O)O)[C@@H]2[C@@H](C(=O)O)[C@@H]2[C@H](O)[C@H]1OCc1ccc(Cl)c(Cl)c1`, the Tmax [1] was 0.38 h, the concentration at 0.5 h [2] was 4.81 µM and the concentration at 0.5 h [3] was 0.072 µM. For the same compound, the pKi [4] was 7.70, the metabolised at 0.5 h, 4 µM [5] was under 20% and the Vd [6] was 0.589 L/kg. For the same compound, the TIME [7] was 0.0167 h, the fraction unbound at 1 µM [8] was over 0.4 and the Cmax [9] was 33.9 µM. The half-life [10] was 5.49 h, the Cmax [11] was 48.1 µM and the inhibition at 10 µM (CYP2C9) was under 5%. The F [12] was 6%, the fraction unbound [13] was 0.56 and the TIME [14] was 2.18 h. The pIC50 [15] was 7.34, the Imax [15] was over 94% and the pIC50 [16] was 7.34. The Imax [16] was over 94%, the inhibition (ABCB1 (P-gp)) was under 1% and the Kp at 0.5 h [17] was 0.015. The Activity (Rattus norvegicus) was “Non-Toxic”, the TIME [18] was 0.683 h and the solubility [19] was 778 µg/mL (≈ 2070 µM). The fraction unbound at 1 µM [20] was over 0.4 and the half-life [21] was 4.48 h.

From ChEMBL document CHEMBL3868610, “Novel bicyclo[3.1.0]hexane analogs as antagonists of metabotropic glutamate 2/3 receptors for the treatment of depression” (Bioorg Med Chem Lett, 2016)
